Tests used:
HBV core protein = HBV core protein (UniProt P03146); format: biochemical; conditions: BODIPY-FL labelled core protein, assembly started with NaCl, read after 6 min; read-out: Assembly Activity (IC50)
Procedure, shortened: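 Fluorescence-quenching assembly assay using E. coli-expressed core protein 1–149 plus Cys150, labelled with BODIPY-FL maleimide, at 1.0–2.0 μM in 50 mM HEPES pH 7.5, 0.5% DMSO. Assembly started with NaCl to […]; fluorescence (ex 477/em 525 nm) read after 6 min. EC50 by non-linear regression, 8-point 0.5-log dilutions.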

HepAD38 cells = assay: Cell viability assay (AlamarBlue) in HepAD38 cells; conditions: HepAD38 cells in the presence of 0.3 μg/ml tetracycline, six days incubation
HBV = assay: Determination of HBV DNA from the supernatants of HepAD38 cells (anti-HBV activity); format: cell-based, hepatitis B virus; conditions: HBV DNA in HepAD38 supernatant at day 6; read-out: Cell Activity (EC50)
Procedure, shortened: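 HepAD38 cells (60,000/well) were treated with half-log compound dilutions in tetracycline-free medium to induce HBV production. On day 6, HBV DNA was purified from filtered supernatant and quantified by real-time PCR against plasmid standards. EC50 values came from non-linear regression of relative copy numbers, typically from three experiments in triplicate.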

HBV core protein, sequence (P03146 whole entry, looked up): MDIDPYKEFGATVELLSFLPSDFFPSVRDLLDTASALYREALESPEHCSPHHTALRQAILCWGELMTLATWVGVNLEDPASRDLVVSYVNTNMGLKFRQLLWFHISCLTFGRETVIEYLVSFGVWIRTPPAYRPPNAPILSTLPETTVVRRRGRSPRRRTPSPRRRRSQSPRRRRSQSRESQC

Compound | IC50 (HBV core protein) [µM] | CC50 (HepAD38 cells) [µM] | EC50 (HBV) [µM]
(2S)-2-amino-4-{[5-(1H-indole-2-carbonyl)-4H,5H,6H,7H-[1,3]thiazolo[5,4-c]pyridin-2-yl]carbamoyl}butanoic acid [Example 354] | < 5 | > 10 | < 1
O=C(c1cc2ccccc2[nH]1)N1CCc2nc(N[C@H]3C[C@H](O)C3)sc2C1 [Example 397, (1r,3r)-3-{[5-(1H-indole-2-carbonyl)-4H,5H,6H,7H-[1,3]thiazolo[5,4-c]pyridin-2-yl]amino}cyclobutan-1-ol] | < 5 | > 10 | < 1
O=C(c1cc2c(Cl)cc(F)cc2[nH]1)N1CCc2nc(N[C@H]3C[C@H](O)C3)sc2C1 [Example 356, (1r,3r)-3-{[5-(4-chloro-6-fluoro-1H-indole-2-carbonyl)-4H,5H,6H,7H-[1,3]thiazolo[5,4-c]pyridin-2-yl]amino}cyclobutan-1-ol] | < 5 | > 10 | < 1
O=C(c1cc2ccc(Cl)cc2[nH]1)N1CCc2nc(N[C@H]3C[C@H](O)C3)sc2C1 [Example 357, (1r,3r)-3-{[5-(6-chloro-1H-indole-2-carbonyl)-4H,5H,6H,7H-[1,3]thiazolo[5,4-c]pyridin-2-yl]amino}cyclobutan-1-ol] | < 5 | > 10 | < 1
O=C(Nc1nc2c(s1)CN(C(=O)c1cc3ccccc3[nH]1)CC2)C1[C@H]2CNC[C@@H]12 (stereo partly drawn) [Example 359, (1R,5S,6R)—N-[5-(1H-indole-2-carbonyl)-4H,5H,6H,7H-[1,3]thiazolo[5,4-c]pyridin-2-yl]-3-azabicyclo[3.1.0]hexane-6-carboxamide] | < 5 | > 10 | < 1
O=C(Nc1nc2c(s1)CN(C(=O)c1cc3ccccc3[nH]1)CC2)C1[C@H]2COC[C@@H]12 (stereo partly drawn) [Example 358, (1R,5S,6R)—N-[5-(1H-indole-2-carbonyl)-4H,5H,6H,7H-[1,3]thiazolo[5,4-c]pyridin-2-yl]-3-oxabicyclo[3.1.0]hexane-6-carboxamide] | < 5 | > 10 | < 1
O=C(Nc1nc2c(s1)CN(C(=O)c1cc3ccccc3[nH]1)CC2)C1[C@H]2CNC[C@@H]12 (stereo partly drawn) [Example 360, (1R,5S,6S)—N-[5-(1H-indole-2-carbonyl)-4H,5H,6H,7H-[1,3]thiazolo[5,4-c]pyridin-2-yl]-3-azabicyclo[3.1.0]hexane-6-carboxamide] | < 5 | > 10 | < 1
O=C(c1cc2c(F)c(F)ccc2[nH]1)N1CCc2nc(N[C@H]3CC[C@@H](O)CC3)sc2C1 [Example 395, (1s,4s)-4-{[5-(4,5-difluoro-1H-indole-2-carbonyl)-4H,5H,6H,7H-[1,3]thiazolo[5,4-c]pyridin-2-yl]amino}cyclohexan-1-ol] | < 5 | > 10 | < 1
tert-butyl 4-{[5-(1H-indole-2-carbonyl)-4H,5H,6H,7H-[1,3]thiazolo[5,4-c]pyridin-2-yl]carbamoyl}piperidine-1-carboxylate [Example 384] | – | > 10 | < 1
O=C(c1cc2c(Cl)c(F)ccc2[nH]1)N1CCc2nc(N[C@H]3C[C@H](O)C3)sc2C1 [Example 355, (1r,3r)-3-{[5-(4-chloro-5-fluoro-1H-indole-2-carbonyl)-4H,5H,6H,7H-[1,3]thiazolo[5,4-c]pyridin-2-yl]amino}cyclobutan-1-ol] | < 5 | > 10 | < 1
N-[5-(1H-indole-2-carbonyl)-4H,5H,6H,7H-[1,3]thiazolo[5,4-c]pyridin-2-yl]piperidine-4-carboxamide hydrochloride [Example 385] | – | > 10 | < 1
(2S)-2-amino-3-{[5-(1H-indole-2-carbonyl)-4H,5H,6H,7H-[1,3]thiazolo[5,4-c]pyridin-2-yl]carbamoyl}propanoic acid [Example 444] | 5 to 10 | > 10 | < 1

Reference: patent publication US11267825B2 (AICURIS GMBH & CO. KG, priority 2017, dated 2022)
